What was measured:
[1] = assay type: physicochemical
Description: (§1) Solvent systems were prepared and then CBG was added in a step-wise fashion and mixed until dissolved (according to visual inspection). The time taken for each addition to be solubilized was recorded.

[2] = Solubility of CBC in solvent systems, step-wise addition, visual inspection; assay type: physicochemical; details: cumulative CBC concentration after addition; solvent PG:VG 70:30
Description: as §1
A similar approach was taken as for example 1, but this time CBC was assessed.

Row | SMILES | CBG concentration the solvent system could sustain [1] | time taken to solubilize approximately 5% CBG [1] | Concentration [2]
1 | CCCCCc1cc(O)c(C/C=C(\C)CCC=C(C)C)c(O)c1 [CBG, cannabigerol] | ≤ 5 %w/w | > 2 h | –
2 | CCCCCc1cc(O)c2c(c1)OC(C)(CCC=C(C)C)C=C2 (stereo not drawn) [CBC, cannabichromene] | – | – | 3.0319 %w/w

Source: patent EP4581943A1, “AEROSOLISABLE MATERIAL FOR USE IN AN ARTICLE” (BT DE Investments Inc., priority 2024, dated 2025)
